Reference: ChEMBL document CHEMBL3808309, “Interpreting the behavior of concentration-response curves of hyaluronidase inhibitors under DMSO-perturbed assay conditions” (Bioorg Med Chem Lett, 2016)
Active and inactive are the calls of the source. No cut-off for these calls is given here.

Key:
[1] = Inhibition of bovine testis hyaluronidase using hyaluronic acid as substrate preincubated with CaCl2 for 20 mins followed by incubation with of compound for 20 mins and substrate for 10 mins by colorimetric Morgan-Elson method in presence of 0.05% triton X-100; design: species or system Bos taurus
[2] = Inhibition of bovine testis hyaluronidase using hyaluronic acid as substrate preincubated for 20 mins followed by incubation with CaCl2 for 20 mins and substrate for 10 mins by colorimetric Morgan-Elson method; design: species or system Bos taurus
Bos taurus [3] = species: Bos taurus; test: Inhibition of bovine testis hyaluronidase preincubated with CaCl2 for 20 mins followed by incubation with compound for 20 mins and substrate for 10 mins by colorimetric Morgan-Elson method in presence of up to 21% DMSO
[4] = Inhibition of bovine testis hyaluronidase using hyaluronic acid as substrate preincubated with CaCl2 for 20 mins followed by incubation with compound for 20 mins and substrate for 10 mins by colorimetric Morgan-Elson method in presence of BSA; design: species or system Bos taurus
[5] = Inhibition of bovine testis hyaluronidase using hyaluronic acid as substrate preincubated with CaCl2 for 20 mins followed by incubation with compound for 20 mins and substrate for 10 mins by colorimetric Morgan-Elson method; design: species or system Bos taurus
[6] = Inhibition of bovine testis hyaluronidase preincubated with CaCl2 for 20 mins followed by incubation with compound for 20 mins and substrate for 10 mins by colorimetric Morgan-Elson method in presence of urea; design: species or system Bos taurus
Bos taurus [7] = species: Bos taurus; test: Ratio of IC50 for inhibition of bovine testis hyaluronidase preincubated with CaCl2 for 20 mins followed by addition of compound to IC50 for inhibition of bovine testis hyaluronidase preincubated for 20 mins followed by addition of CaCl2
Bos taurus [8] = species: Bos taurus; test: Inhibition of bovine testis hyaluronidase using hyaluronic acid as substrate at 3000 uM preincubated with CaCl2 for 20 mins followed by incubation with compound for 20 mins and substrate for 10 mins by colorimetric Morgan-Elson method in presence of 0.05% triton X-100

SMILES	IC50 [1]	IC50 [2]	inhibition (Bos taurus [3])	IC50 [4]	IC50 [5]	IC50 [6]	Ratio IC50 (Bos taurus [7])	inhibition (Bos taurus [8])
CCCCCCCCCCCCCCCC(=O)OC[C@H](O)C1OC(=O)C(O)=C1O (some centres not stated)	480 µM	23 µM	Active	240 µM	47 µM	–	–	–
O=C(O)[C@H]1O[C@@H](Oc2cc3oc(-c4ccccc4)cc(=O)c3c(O)c2O)[C@H](O)[C@@H](O)[C@@H]1O [BAICALIN]	1000 µM	450 µM	inactive	1600 µM	1400 µM	–	–	–
O=C(O)c1cc(=O)c2c(OCC(O)COc3cccc4oc(C(=O)O)cc(=O)c34)cccc2o1 [CROMOLYN SODIUM]	1700 µM	330 µM	inactive	1600 µM	1700 µM	1600 µM	–	–
CC1(C)[C@@H](O[C@H]2O[C@H](C(=O)O)[C@@H](O)[C@H](O)[C@H]2O[C@@H]2O[C@H](C(=O)O)[C@@H](O)[C@H](O)[C@H]2O)CC[C@]2(C)[C@H]3C(=O)C=C4[C@@H]5C[C@@](C)(C(=O)O)CC[C@]5(C)CC[C@@]4(C)[C@]3(C)CC[C@@H]12 [GLYCYRRHIZIN]	40 µM	8.5 µM	inactive	61 µM	29 µM	31 µM	> 3	–
COc1ccc2c(c1)c(CC(=O)O)c(C)n2C(=O)c1ccc(Cl)cc1 [INDOMETHACIN]	–	340 µM	–	2000 µM	1400 µM	–	–	< 50%
